Laboratory results reported in article PMC9103758 (International Journal of Molecular Sciences, 2022).
Entries after “also recorded” stand apart in the source; their conditions may differ.

How the values were obtained:
[1] = system: NIH-3T3 cells; assay: Cell viability (MTS/MTT) in NIH-3T3 cells; assay type: cell-based; settings: 24 h, up to/at 30 μM
Procedure: […]. (A) Structure of VI-116. (B) Representative YFP fluorescence traces. The inhibitory effects of VI-116 on VRAC activity were determined using YFP fluorescence assay in LN215 cells. VRAC was activated by application of […] solution for 5 min. (C) Summary of VRAC dose-response (mean ± S.E., n = 4). (D) Summary of VRAC dose−response with 10% FBS (mean ± S.E., n = 4). […].
NIH-3T3 cells were plated on 96-well microplates. After 24 h incubation, cells were treated with VI-116 or DCPIB and incubated for 24 h. The culture medium and the compounds were changed every 12 h. To assess cell proliferation, the cells were incubated with MTS for 1 h. The soluble formazan produced by the cellular reduction of MTS was quantified by measuring the absorbance at 490 nm with an Infinite M200 (Tecan, Grödig, Austria) microplate reader. MTS assay was performed using a CellTiter 96 Aqueous One Solution Cell Proliferation Assay kit (Promega, Madison, WI, USA).

[2] = system: ATP-induced intracellular calcium signaling in FRT cells; assay: Intracellular calcium measurement (Fluo-4) in FRT cells; assay type: cell-based, rat; settings: dose-dependent, 100 μM ATP
Procedure: (§1) (A) Representative Fluo4 fluorescence traces from 3 independent experiments in FRT cells. […] (B,C) Representative apical membrane currents from 3–4 independent experiments in FRT cells expressing human ANO1. […] (D) Representative YFP fluorescence traces in FRT cells expressing human ANO2. […] (E) Representative Fluo4 fluorescence traces from 3 independent experiments in FRT cells. Cells were pretreated with DCPIB for 10 min followed by application of 100 μM ATP. (F) Representative apical membrane currents in FRT cells expressing human ANO1.
FRT cells were plated on 96-well black-walled microplates and loaded with Fluo-4 NW according to the manufacturer’s protocol (Invitrogen, Carlsbad, CA, USA). […] The 96-well plates were transferred to a plate reader for fluorescence assay.

[3] = target: T1, ANO1 (Homo sapiens, UniProt Q5XXA6, DEL476-501); assay: Apical membrane current of ANO1 in FRT cells expressing human ANO1; assay type: cell-based; settings: 3 μM Eact
T1 construct: expressed in transfected cells; host or cells: Fisher rat thyroid (FRT) cells; The YFP assay uses FRT-ANO1-YFP cells, which also carry the halide sensor
T1 sequence (Q5XXA6 with tags, fused parts or gaps isoform Q5XXA6-5 DEL539-564): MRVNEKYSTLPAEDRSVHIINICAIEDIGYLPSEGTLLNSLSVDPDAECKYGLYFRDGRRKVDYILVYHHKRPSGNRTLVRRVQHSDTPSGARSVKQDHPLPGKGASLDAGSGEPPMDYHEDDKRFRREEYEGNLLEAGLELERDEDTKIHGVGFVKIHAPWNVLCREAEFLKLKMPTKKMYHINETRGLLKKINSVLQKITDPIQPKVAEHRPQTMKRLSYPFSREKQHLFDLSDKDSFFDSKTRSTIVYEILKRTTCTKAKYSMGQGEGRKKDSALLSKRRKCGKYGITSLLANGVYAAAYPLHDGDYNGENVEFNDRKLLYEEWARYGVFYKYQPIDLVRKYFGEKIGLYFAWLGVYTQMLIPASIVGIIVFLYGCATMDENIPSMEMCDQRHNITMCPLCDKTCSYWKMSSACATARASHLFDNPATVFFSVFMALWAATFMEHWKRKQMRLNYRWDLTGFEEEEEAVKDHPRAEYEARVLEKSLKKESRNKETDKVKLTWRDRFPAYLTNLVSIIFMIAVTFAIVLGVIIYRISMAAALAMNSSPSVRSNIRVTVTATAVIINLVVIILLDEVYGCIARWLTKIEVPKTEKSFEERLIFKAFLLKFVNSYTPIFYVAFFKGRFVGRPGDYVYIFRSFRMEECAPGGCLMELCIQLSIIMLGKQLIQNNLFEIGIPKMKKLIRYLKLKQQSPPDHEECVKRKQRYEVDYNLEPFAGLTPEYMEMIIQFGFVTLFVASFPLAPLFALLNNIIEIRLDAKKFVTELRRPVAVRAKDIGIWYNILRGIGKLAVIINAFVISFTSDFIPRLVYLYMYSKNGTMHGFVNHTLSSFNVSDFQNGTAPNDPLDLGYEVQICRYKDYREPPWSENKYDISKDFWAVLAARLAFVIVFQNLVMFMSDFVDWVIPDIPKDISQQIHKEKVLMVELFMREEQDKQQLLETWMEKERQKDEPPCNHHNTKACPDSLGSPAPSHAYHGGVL
Procedure: as §1
(§2) Snapwell inserts containing ANO1(abc) or CFTR-expressing FRT cells were mounted in Ussing chambers (Physiological Instruments, San Diego, CA). The basolateral hemichamber was filled with buffer solution (in mM): 120 NaCl, 5 KCl, 1 MgCl2, 1 CaCl2, 10 D-glucose, 2.5 HEPES, and 25 NaHCO3 (pH 7.4). The apical hemichamber was filled with buffer solution (in mM): 60 NaCl, 60 Na-gluconate, 5 KCl, 1 MgCl2, 1 CaCl2, 10 D-glucose, 2.5 HEPES, and 25 NaHCO3 (pH 7.4). FRT cells were bathed for a 10 min stabilization period and gassed with 5% CO2 and 95% O2 at 37 °C. The apical membrane current was recorded with an EVC4000 Multi-Channel V/I Clamp (World Precision Instruments, Sarasota, FL, USA) and a PowerLab 4/35 (AD Instruments, Castle Hill, Australia).

[4] = target: T2, human CFTR (Homo sapiens, UniProt P13569); assay: Apical membrane current of CFTR in FRT cells expressing human CFTR; assay type: cell-based; settings: apical membrane current, FRT cells expressing human CFTR, 20 μM forskolin, n = 5; read-out: CFTR chloride channel IC50
T2 construct: expressed in transfected cells; host or cells: Fisher rat thyroid (FRT) cells
T2 sequence (P13569 whole entry): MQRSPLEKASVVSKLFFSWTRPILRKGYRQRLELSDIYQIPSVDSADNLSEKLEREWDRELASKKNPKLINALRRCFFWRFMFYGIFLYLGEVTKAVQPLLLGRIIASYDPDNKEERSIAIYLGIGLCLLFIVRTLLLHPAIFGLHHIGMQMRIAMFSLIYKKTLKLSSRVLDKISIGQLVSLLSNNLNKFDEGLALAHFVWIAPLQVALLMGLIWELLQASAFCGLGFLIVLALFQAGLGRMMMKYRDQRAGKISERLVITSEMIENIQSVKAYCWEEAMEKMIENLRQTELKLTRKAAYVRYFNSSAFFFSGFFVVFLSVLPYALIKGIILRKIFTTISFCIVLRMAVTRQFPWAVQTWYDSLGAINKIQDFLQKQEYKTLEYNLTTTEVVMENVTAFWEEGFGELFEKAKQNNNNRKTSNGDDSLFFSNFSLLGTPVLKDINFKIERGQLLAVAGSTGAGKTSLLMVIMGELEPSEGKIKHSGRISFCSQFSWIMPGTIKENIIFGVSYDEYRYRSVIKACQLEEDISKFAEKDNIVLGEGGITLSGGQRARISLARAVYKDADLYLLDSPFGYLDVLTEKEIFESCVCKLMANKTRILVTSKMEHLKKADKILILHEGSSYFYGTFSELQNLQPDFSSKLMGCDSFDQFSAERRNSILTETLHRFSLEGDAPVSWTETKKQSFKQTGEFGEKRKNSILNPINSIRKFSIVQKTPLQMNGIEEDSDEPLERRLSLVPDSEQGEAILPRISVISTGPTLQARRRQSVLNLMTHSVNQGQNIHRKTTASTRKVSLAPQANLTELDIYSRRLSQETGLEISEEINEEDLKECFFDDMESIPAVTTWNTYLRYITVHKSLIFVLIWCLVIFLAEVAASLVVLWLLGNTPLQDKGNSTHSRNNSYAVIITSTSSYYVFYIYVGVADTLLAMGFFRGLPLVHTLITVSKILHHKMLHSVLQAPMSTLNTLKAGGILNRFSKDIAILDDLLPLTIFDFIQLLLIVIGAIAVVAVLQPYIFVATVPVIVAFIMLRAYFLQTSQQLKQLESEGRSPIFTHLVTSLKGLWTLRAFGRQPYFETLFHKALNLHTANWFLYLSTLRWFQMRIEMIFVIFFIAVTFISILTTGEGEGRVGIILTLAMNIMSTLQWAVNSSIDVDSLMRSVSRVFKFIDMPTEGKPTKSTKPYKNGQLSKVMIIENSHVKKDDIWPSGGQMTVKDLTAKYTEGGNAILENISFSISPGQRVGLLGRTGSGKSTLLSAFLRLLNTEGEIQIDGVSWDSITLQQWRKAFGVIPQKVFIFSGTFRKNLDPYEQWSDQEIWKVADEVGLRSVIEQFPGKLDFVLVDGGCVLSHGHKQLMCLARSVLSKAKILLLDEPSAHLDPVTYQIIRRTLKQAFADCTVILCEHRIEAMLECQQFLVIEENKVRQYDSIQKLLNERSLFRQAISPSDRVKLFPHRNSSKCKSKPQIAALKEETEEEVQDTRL
Excerpt: […]. (C) Summary of dose-response (mean ± S.E., n = 5). […]. (F) Summary of dose−response (mean ± S.E., n = 6).
as §2

[5] = target: T3, hERG K+ channel (Homo sapiens, UniProt Q12809); assay: FluxOR thallium flux assay in HEK293T cells expressing hERG; assay type: cell-based
T3 construct: expressed in transfected cells; called HEK293
T3 sequence (Q12809 whole entry): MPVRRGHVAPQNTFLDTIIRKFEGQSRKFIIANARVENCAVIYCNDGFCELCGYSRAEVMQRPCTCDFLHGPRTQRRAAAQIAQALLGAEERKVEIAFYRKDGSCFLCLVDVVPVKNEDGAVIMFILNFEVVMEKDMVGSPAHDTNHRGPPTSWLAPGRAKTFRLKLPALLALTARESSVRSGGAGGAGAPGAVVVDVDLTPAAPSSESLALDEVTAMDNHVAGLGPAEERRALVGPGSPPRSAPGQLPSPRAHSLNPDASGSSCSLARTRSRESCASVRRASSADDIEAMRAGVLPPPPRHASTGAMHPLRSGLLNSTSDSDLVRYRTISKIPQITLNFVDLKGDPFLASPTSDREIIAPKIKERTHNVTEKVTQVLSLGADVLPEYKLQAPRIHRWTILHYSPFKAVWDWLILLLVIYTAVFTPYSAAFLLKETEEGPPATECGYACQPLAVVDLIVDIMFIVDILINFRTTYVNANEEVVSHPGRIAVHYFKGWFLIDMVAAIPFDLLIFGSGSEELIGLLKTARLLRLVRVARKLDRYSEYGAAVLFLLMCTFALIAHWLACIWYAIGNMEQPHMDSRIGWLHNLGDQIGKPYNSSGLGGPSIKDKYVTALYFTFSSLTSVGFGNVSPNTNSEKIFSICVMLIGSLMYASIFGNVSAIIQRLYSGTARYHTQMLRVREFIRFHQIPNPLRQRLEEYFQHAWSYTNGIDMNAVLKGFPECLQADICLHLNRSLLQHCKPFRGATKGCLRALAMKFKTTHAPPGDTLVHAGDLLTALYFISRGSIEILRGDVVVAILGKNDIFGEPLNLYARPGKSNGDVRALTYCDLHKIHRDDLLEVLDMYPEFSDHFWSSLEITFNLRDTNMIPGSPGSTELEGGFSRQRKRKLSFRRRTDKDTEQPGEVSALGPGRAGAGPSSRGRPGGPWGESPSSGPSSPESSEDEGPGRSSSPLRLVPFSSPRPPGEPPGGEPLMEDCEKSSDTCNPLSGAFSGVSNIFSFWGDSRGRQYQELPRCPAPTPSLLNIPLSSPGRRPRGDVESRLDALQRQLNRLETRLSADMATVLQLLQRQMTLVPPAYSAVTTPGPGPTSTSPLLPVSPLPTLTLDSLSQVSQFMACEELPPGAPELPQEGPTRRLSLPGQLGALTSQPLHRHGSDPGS
Procedure: (C) Summary of dose-response (mean ± S.E., n = 5). […] (F) Summary of dose−response (mean ± S.E., n = 6).
HEK293 cells stably expressing human Kv11.1 (hERG) were cultured in 96-well plates. After 48 h, the cells were incubated at 28 °C for 4 h to increase the membrane expression of hERG. The culture medium was replaced with a 80 μL/well of FluxOR (Invitrogen, Waltham, MA, USA) loading buffer and incubated for 1 h at 37 °C in the dark. After removing the loading buffer, 100 μL of assay buffer was added to each well. […] FluxOR fluorescence (excitation/emission: 490/525 nm) was recorded for 4 s before the addition of 20 μL of stimulus buffer containing thallium ions, and the fluorescence was recorded. FluxOR fluorescence was recorded and analyzed using the FLUOstar Omega microplate reader (BMG Labtech, Ortenberg, Germany) and the MARS Data Analysis Software (BMG Labtech, Ortenberg, Germany). All buffers were prepared according to the manufacturer’s instructions.

[6] = system: hERG; settings: 10 μM, Xenopus oocytes overexpressed with hERG; cited from earlier work
[7] = system: calcium-activated chloride currents in calf pulmonary artery endothelial (CPAE) cells; settings: cited from earlier work

CCCCC1(C2CCCC2)Cc2cc(OCCCC(=O)O)c(Cl)c(Cl)c2C1=O (stereo not drawn) [DCPIB, 4-(2-butyl-6,7-dichlor-2-cyclopentylindan-1-on-5-yl) oxobutyric acid]
effect on cell viability [1]: significantly reduced cell viability
effect on ATP-induced intracellular calcium increase [2]: significantly affected; also recorded: strongly blocked; also recorded: potently blocked; also recorded: potently inhibited
effect on Eact-activated ANO1 chloride current ([3]; 10 μM): increased
effect on Eact-activated ANO1 chloride current ([3]; 100 μM): almost completely inhibited
IC50 [4]: 71.7 µM
effect on hERG K+ channel activity ([5]; 10 μM): significantly blocked
IC50 ([5]; thallium flux, HEK293T cells expressing hERG, n = 6): 11.4 µM
effect on hERG [6]: did not inhibit
effect on calcium-activated chloride currents [7]: did not affect
